In the NIST ThermoML archive (doi:10.1021/acs.jced.6b00959):

Test: molar heat capacity at constant pressure
Details: Liquid, Flow calorimetry

C=C(F)C(F)(F)F [2,3,3,3-tetrafluoro-1-propene]
Details | molar heat capacity at constant pressure [J/K/mol]
303.53 K, 2030 kPa | 157.15
303.55 K, 2530 kPa | 156.01
303.58 K, 1570 kPa | 160.11
303.6 K, 8010 kPa | 146.09
303.6 K, 8490 kPa | 146.2
303.6 K, 10010 kPa | 145.75
303.61 K, 6980 kPa | 146.66
303.61 K, 7490 kPa | 146.89
303.61 K, 8980 kPa | 145.75
303.61 K, 9470 kPa | 145.75
303.67 K, 10990 kPa | 144.49
303.72 K, 3040 kPa | 154.41
303.72 K, 10520 kPa | 144.95
303.73 K, 5000 kPa | 150.88
303.74 K, 3530 kPa | 154.18
303.75 K, 4020 kPa | 153.16
303.75 K, 5520 kPa | 150.19
303.77 K, 6510 kPa | 148.6
303.79 K, 11450 kPa | 144.03
303.79 K, 12070 kPa | 143.69
303.8 K, 5980 kPa | 148.82
303.81 K, 4520 kPa | 151.45
313.61 K, 6020 kPa | 154.3
313.63 K, 5000 kPa | 157.04
313.64 K, 4490 kPa | 158.18
313.64 K, 7500 kPa | 151.68
313.64 K, 7980 kPa | 151.11
313.65 K, 8490 kPa | 150.65
313.66 K, 1510 kPa | 166.04
313.66 K, 4000 kPa | 159.77
313.66 K, 6990 kPa | 152.82
313.67 K, 2010 kPa | 165.36
313.69 K, 2510 kPa | 165.02
313.69 K, 3000 kPa | 164.11
313.69 K, 6500 kPa | 153.96
313.7 K, 9500 kPa | 149.85
313.7 K, 10010 kPa | 149.51
313.7 K, 11460 kPa | 147.8
313.72 K, 3510 kPa | 162.62
313.72 K, 8970 kPa | 150.31
313.72 K, 10500 kPa | 148.94
313.72 K, 10980 kPa | 148.6
313.72 K, 12040 kPa | 147.46
313.79 K, 5490 kPa | 154.53
323.62 K, 2020 kPa | 170.26
323.63 K, 6940 kPa | 155.67
323.64 K, 7520 kPa | 154.98
323.64 K, 8000 kPa | 154.41
323.64 K, 8510 kPa | 153.73
323.65 K, 2500 kPa | 168.67
323.65 K, 9540 kPa | 152.25
323.66 K, 8960 kPa | 153.39
323.66 K, 9990 kPa | 152.02
323.68 K, 3010 kPa | 167.41
323.68 K, 10980 kPa | 151.11
323.69 K, 3510 kPa | 165.93
323.69 K, 4520 kPa | 162.51
323.69 K, 6490 kPa | 157.61
323.69 K, 10530 kPa | 151.79
323.7 K, 11470 kPa | 150.31
323.71 K, 3990 kPa | 164.79
323.71 K, 5020 kPa | 161.37
323.71 K, 5500 kPa | 159.89
323.71 K, 5990 kPa | 159.09
323.73 K, 12010 kPa | 150.08
333.61 K, 5490 kPa | 165.47
333.63 K, 3000 kPa | 179.5
333.63 K, 5980 kPa | 164.68
333.66 K, 3480 kPa | 177.56
333.66 K, 4500 kPa | 170.72
333.66 K, 7020 kPa | 161.71
333.67 K, 2080 kPa | 185.77
333.68 K, 2520 kPa | 183.95
333.68 K, 5000 kPa | 169.12
333.68 K, 6510 kPa | 162.74
333.69 K, 7500 kPa | 161.03
333.69 K, 9010 kPa | 159.09
333.69 K, 9990 kPa | 156.69
333.71 K, 4040 kPa | 175.4
333.72 K, 8010 kPa | 160.68
333.72 K, 8500 kPa | 159.66
333.72 K, 9490 kPa | 157.61
333.79 K, 10520 kPa | 155.21
333.79 K, 11000 kPa | 154.75
333.82 K, 11480 kPa | 154.07
333.82 K, 12030 kPa | 153.61
343.67 K, 10510 kPa | 157.83
343.68 K, 2530 kPa | 204.93
343.68 K, 3510 kPa | 187.26
343.68 K, 11500 kPa | 156.58
343.69 K, 11060 kPa | 156.92
343.7 K, 4490 kPa | 178.48
343.7 K, 9470 kPa | 159.89
343.7 K, 12010 kPa | 155.89
343.71 K, 7000 kPa | 165.47
343.72 K, 6040 kPa | 169.35
343.73 K, 6510 kPa | 168.55
343.73 K, 7500 kPa | 164.45
343.73 K, 7980 kPa | 163.76
343.74 K, 3990 kPa | 183.49
343.75 K, 5020 kPa | 175.74
343.75 K, 10020 kPa | 159.54
343.77 K, 8520 kPa | 163.19
343.79 K, 3010 kPa | 196.61
343.8 K, 9010 kPa | 162.51
343.81 K, 5560 kPa | 173.23
353.69 K, 10520 kPa | 163.99
353.71 K, 6510 kPa | 177.79
353.71 K, 8500 kPa | 169.24
353.73 K, 4510 kPa | 196.61
353.73 K, 4990 kPa | 190.11
353.73 K, 5500 kPa | 185.77
353.73 K, 11010 kPa | 162.85
353.74 K, 8990 kPa | 168.33
353.75 K, 6990 kPa | 175.97
353.76 K, 11520 kPa | 162.62
353.77 K, 9530 kPa | 166.96
353.78 K, 6040 kPa | 182.58
353.78 K, 12010 kPa | 161.94
353.79 K, 7490 kPa | 173.8
353.79 K, 10010 kPa | 165.93
353.81 K, 7990 kPa | 172.66
363.69 K, 6030 kPa | 189.42
363.73 K, 10520 kPa | 167.98
363.74 K, 5480 kPa | 198.2
363.75 K, 4510 kPa | 225
363.75 K, 7990 kPa | 175.85
363.76 K, 7020 kPa | 181.78
363.76 K, 10010 kPa | 169.12
363.76 K, 11050 kPa | 167.3
363.77 K, 6500 kPa | 186.46
363.78 K, 4990 kPa | 209.38
363.78 K, 7530 kPa | 178.7
363.78 K, 8990 kPa | 172.09
363.78 K, 11500 kPa | 166.96
363.79 K, 8510 kPa | 174.26
363.8 K, 9490 kPa | 171.06
363.83 K, 12080 kPa | 166.96
373.09 K, 4510 kPa | 297.19
373.19 K, 4990 kPa | 241.54
373.24 K, 5480 kPa | 217.82
373.28 K, 5980 kPa | 202.31
373.3 K, 6490 kPa | 191.25
373.3 K, 7000 kPa | 185.09
373.3 K, 7520 kPa | 180.3
373.32 K, 8030 kPa | 177.33
373.32 K, 8510 kPa | 174.94
373.32 K, 8990 kPa | 172.32
373.34 K, 9510 kPa | 171.52
373.36 K, 9990 kPa | 170.95
373.38 K, 10530 kPa | 169.58
373.39 K, 11020 kPa | 168.44
373.4 K, 11510 kPa | 167.87
373.42 K, 11980 kPa | 167.41
